The structures appear in SMILES notation. “Also recorded” adds a separate entry of the source. Where a name gives a salt, the structure may show the parent alone.

Data set [1] in a line: Drug solubility in simulated intestinal fluids. In kind it is physicochemical.
The nature of data set [2]: Mouse pharmacokinetic natural product-drug interaction study. In kind it is in vivo, C57BL/6 mice. The note with it: for AUC(0-t) / Cmax / AUC0-4h / AUC0-24h / Metabolite-to-parent AUC0-4h ratio / Metabolite-to-parent AUC0-24h ratio: geometric mean (CV%); for tmax: median (range).
The conditions of data set [3]: cited from earlier work.
The conditions of data set [4]: cited from earlier work. This is another data set of the same source.
For data set [5] the following is noted: rats; oral administration of EGCG and sunitinib; cited from earlier work.
The conditions of data set [6]: rats; EGCG group (control group 79%); cited from earlier work.
For data set [7] the following is noted: FaSSIF pH 6.5.
The conditions of data set [8]: FeSSIF pH 5.0.
Where [9] appears, read: mice, plasma, raloxifene 20 mg/kg oral with EGCG 12.96 mg/kg.
The mark [10] stands for this setting: mice, plasma, raloxifene 20 mg/kg oral with green tea extract 200 mg/kg.
Where [11] appears, read: mice, raloxifene 20 mg/kg oral alone in vehicle.
Setting [12] is: mice, raloxifene 20 mg/kg oral with EGCG 12.96 mg/kg.
Where [13] appears, read: mice, raloxifene 20 mg/kg oral with green tea extract 200 mg/kg.

As usually defined, the AUC(0-t) is the area under the concentration-time curve up to a stated or last time point. Lower therefore signals low exposure. The term Cmax denotes the highest concentration seen after dosing. One may read the logP as the decadic logarithm of the partition coefficient of the neutral form, usually between octanol and water. For the molecule `O=C(c1ccc(OCCN2CCCCC2)cc1)c1c(-c2ccc(O)cc2)sc2cc(O)ccc12` [Raloxifene, Raloxifene hydrochloride], in data set [1] (FeSSIF pH 5.0 vs FaSSIF pH 6.5), the “raloxifene solubility in FeSSIF compared to FaSSIF” value is 3.4 fold. In addition, the “overt effects in the mice after administration” value in data set [2] (during the study) is “No overt effects”. The AUC(0-t) in data set [2] (male, C57BL/6, mouse, plasma, po, 20 mg/kg, AUC0-4h, mice, raloxifene 20 mg/kg oral with EGCG 12.96 mg/kg) worked out at 0.322 µM·h; in data set [2] (male, C57BL/6, mouse, plasma, po, 20 mg/kg, AUC0-4h, mice, raloxifene 20 mg/kg oral with green tea extract 200 mg/kg), 0.2 µM·h; in data set [2] (male, C57BL/6, mouse, plasma, po, 20 mg/kg, AUC0-24h, mice, raloxifene 20 mg/kg oral with EGCG 12.96 mg/kg) it was 0.867 µM·h; in data set [2] (male, C57BL/6, mouse, plasma, po, 20 mg/kg, AUC0-24h, mice, raloxifene 20 mg/kg oral with green tea extract 200 mg/kg), 0.669 µM·h. Also, the highest concentration (Cmax) was determined as 168 nM in data set [2] (male, C57BL/6, mouse, plasma, po, 20 mg/kg, Cmax, mice, raloxifene 20 mg/kg oral with EGCG 12.96 mg/kg (0, 4, 8 h)) and 79 nM in data set [2] (male, C57BL/6, mouse, plasma, po, 20 mg/kg, Cmax, mice, raloxifene 20 mg/kg oral with green tea extract 200 mg/kg (0, 4, 8 h)). For the same molecule, the tmax worked out at 0.5 h in data set [2] (male, C57BL/6, mouse, plasma, po, 20 mg/kg, tmax, mice, raloxifene 20 mg/kg oral with EGCG 12.96 mg/kg) and 4 h in data set [2] (male, C57BL/6, mouse, plasma, po, 20 mg/kg, tmax, mice, raloxifene 20 mg/kg oral with green tea extract 200 mg/kg). The logP in data set [3] is 5.78. Moreover, the oral bioavailability in data set [4] was ~ 2%.

For `CC(C)(C)NCC(O)COc1cccc2c1CC(O)C(O)C2` (centres unmarked) [Nadolol], the “solubility in simulated intestinal fluids (in words)” value in data set [1] (at 0.16 mg/mL) is “completely soluble”. For the same molecule, the logP in data set [3] is given as 0.85.

For `O=C(O[C@@H]1Cc2c(O)cc(O)cc2O[C@@H]1c1cc(O)c(O)c(O)c1)c1cc(O)c(O)c(O)c1` [EGCG, (−)-epigallocatechin gallate], in data set [2] (mice, compared to vehicle group, EGCG 12.96 mg/kg), the “effect on Cmax of raloxifene and raloxifene-6-glucuronide (in words)” value is given as “no effect”. In data set [5], the “reduction of sunitinib AUC0-∞” value was 52% and the “reduction of sunitinib Cmax” value is given as 48%. Further, the “intestinal absorption of cholesterol from a test meal” value in data set [6] is recorded as 63%. The “effect on raloxifene solubility in FaSSIF (in words)” value in data set [7] was “decreased the solubility”. The “effect on raloxifene solubility (concentration) in FeSSIF (in words)” value in data set [8] is “neither green tea extract nor EGCG significantly affected; also recorded: did not change; also recorded: Neither green tea extract nor EGCG had a significant effect”.

As to `O=C(c1ccc(OCCN2CCCCC2)cc1)c1c(-c2ccc(O)cc2)sc2cc(O[C@@H]3O[C@H](C(=O)O)[C@@H](O)[C@H](O)[C@H]3O)ccc12` [Raloxifene-6-glucuronide, raloxifene-6-glucuronide], the maximum concentration (Cmax) in data set [2] (mice, plasma, raloxifene 20 mg/kg oral with EGCG 12.96 mg/kg (0, 4, 8 h)) is 820 nM; in data set [2] (mice, plasma, raloxifene 20 mg/kg oral with green tea extract 200 mg/kg (0, 4, 8 h)) it was 288 nM. Further, the AUC0-4h in data set [2] (setting [9]) is reported as 1200 (53) nM•h; in data set [2] (setting [10]), 624 (31) nM•h. Besides, the results for the AUC0-24h in data set [2] (setting [9]) and in data set [2] (setting [10]) were 2150 (52) nM•h and 1560 (32) nM•h, respectively. Further, the “Metabolite-to-parent AUC0-4h ratio” value is on record as 2.74 (30) in data set [2] (setting [11]), 3.74 (25) in data set [2] (setting [12]) and 3.12 (34) in data set [2] (setting [13]). For the same molecule, the “Metabolite-to-parent AUC0-24h ratio” value in data set [2] (setting [11]) was 2.23 (36); in data set [2] (setting [12]) it was 2.48 (38); in data set [2] (setting [13]) it was 2.33 (24). Also, the tmax in data set [2] (setting [11]) is given as 0.25 (0.25 - 0.5) h; in data set [2] (setting [12]), 0.5 (0.25 - 4) h; in data set [2] (setting [13]), 0.25 (0.25 - 0.5) h.
